Data published in patent US6610677B2, “Pyrazole compounds useful as protein kinase inhibitors” (Vertex Pharmaceuticals Incorporated, priority 2000, dated 2003).

Key:
Aurora-2 = biological target: T1, Aurora-2 (Homo sapiens, UniProt O14965); assay: Ki determination for the inhibition of Aurora-2 (coupled enzyme assay); assay type: biochemical; details: 70 nM Aurora-2, peptide LRRASLG, 30° C
T1 sequence (O14965 1-403): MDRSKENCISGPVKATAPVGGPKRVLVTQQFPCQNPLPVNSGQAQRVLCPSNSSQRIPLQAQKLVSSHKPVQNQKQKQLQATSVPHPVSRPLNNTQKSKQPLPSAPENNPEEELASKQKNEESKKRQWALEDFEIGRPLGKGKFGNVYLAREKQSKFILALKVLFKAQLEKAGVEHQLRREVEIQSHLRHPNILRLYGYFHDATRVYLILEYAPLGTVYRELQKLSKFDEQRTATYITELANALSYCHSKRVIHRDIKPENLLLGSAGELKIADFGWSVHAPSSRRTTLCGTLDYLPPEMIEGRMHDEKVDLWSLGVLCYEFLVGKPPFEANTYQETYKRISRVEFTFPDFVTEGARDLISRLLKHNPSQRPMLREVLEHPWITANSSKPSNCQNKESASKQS
Outline: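 Ki came from reaction rates plotted against inhibitor concentration, with rates taken as A340 decrease over 5 min at 30° C. Enzyme (70 nM final) was added after 10 min compound preincubation; stock buffer held […], 800 μM LRRASLG, PK/LDH coupling, pH 7.5.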

activated ERK2 = activated ERK2 (Homo sapiens, UniProt P28482); assay: ERK inhibition assay (spectrophotometric coupled-enzyme assay); assay type: biochemical; details: 10 nM activated ERK2, 65 μM ATP, 200 μM erktide; read-out: Ki value for ERK-2
Method: Compounds were assayed for the inhibition of ERK2 by a spectrophotometric coupled-enzyme assay (Fox et al (1998) Protein Sci 7, 2249). In this assay, a fixed concentration of activated ERK2 (10 nM) was incubated with various concentrations of the compound in DMSO (2.5%) for 10 min. at 30° C. in 0.1 M HEPES buffer, pH 7.5, containing 10 mM MgCl2, 2.5 mM phosphoenolpyruvate, 200 μM NADH, 150 μg/mL pyruvate kinase, 50 μg/mL lactate dehydrogenase, and 200 μM erktide peptide. The reaction was initiated by the addition of 65 μM ATP. The rate of decrease of absorbance at […] was monitored. The IC50 was evaluated from the rate data as a function of inhibitor concentration.

GSK-3β (AA 1-420) = biological target: T2, GSK-3β (AA 1-420) (Homo sapiens, UniProt P49841); assay: Ki determination for the inhibition of GSK-3 (coupled enzyme system); assay type: biochemical; details: 20 μM ATP, 300 μM peptide, 20 nM GSK-3β, 30° C
T2 construct: GSK-3β (AA 1-420)
Outline: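 Ki values come from reaction rates over 10 min at 30 °C as a function of inhibitor concentration (12-point titration, 0.002–30 μM, 10 min preincubation). GSK-3β (AA 1-420, 20 nM) phosphorylated 300 μM primed peptide with 20 μM ATP; ADP formation followed by coupled NADH oxidation, pH 7.5.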

human Src kinase = biological target: T3, human Src kinase (Homo sapiens, UniProt P12931); assay: SRC inhibition assay (radioactivity-based or spectrophotometric assay); assay type: biochemical; details: assay A or B not specified; read-out: Ki value on SRC
T3 construct: full length recombinant human Src kinase; purchased Upstate Biotechnology 14-117; host or cells: baculo viral cells (baculovirus expression system)
Method: The compounds were evaluated as inhibitors of human Src kinase using either a radioactivity-based assay or spectrophotometric assay. The compounds were assayed as inhibitors of full length recombinant human Src kinase (from Upstate Biotechnology, cat. no. 14-117) expressed and purified from baculo viral cells. […] P-0275). […] In a typical assay, all the reaction components with the exception of ATP were pre-mixed and aliquoted into assay plate wells. Inhibitors dissolved in DMSO were added to the wells to give a final DMSO concentration of 2.5%. The assay plate was incubated at 30° C. for 10 min before initiating the reaction with ^33P-ATP. After 20 min of reaction, the reactions were quenched with 150 μl of 10% trichloroacetic acid (TCA) containing 20 mM Na3PO4. The quenched samples were then transferred to a 96-well filter plate (Whatman, UNI-Filter GF/F Glass Fiber Filter, cat no. 7700-3310) installed on a filter plate vacuum manifold. Filter plates were washed four times with 10% TCA containing 20 mM Na3PO4 and then 4 times with methanol. 200 μl of scintillation fluid was then added to each well. The plates were sealed and the amount of radioactivity associated with the filters was quantified on a TopCount scintillation counter. The radioactivity incorporated was plotted as a function of the inhibitor concentration. The data was fitted to a competitive inhibition kinetics model to get the Ki for the compound. The ADP produced from ATP by the human recombinant Src kinase-catalyzed phosphorylation of poly Glu-Tyr substrate was quanitified using a coupled enzyme assay (Fox et al (1998) Protein Sci 7, 2249). In this assay one molecule of NADH is oxidised to NAD for every molecule of ADP produced in the kinase reaction. The disappearance of NADH can be conveniently followed at 340 nm. […] In a typical assay, all the reaction components with the exception of ATP were pre-mixed and aliquoted into assay plate wells. Inhibitors dissolved in DMSO were added to the wells to give a final DMSO concentration of 2.5%. […] The absorbance change at 340 nm with time, the rate of the reaction, was monitored on a molecular devices plate reader. The data of rate as a function of the inhibitor concentration was fitted to compettive inhibition kinetics model to get the Ki for the compound.

T2 sequence (P49841 whole entry, the tested form may be a part): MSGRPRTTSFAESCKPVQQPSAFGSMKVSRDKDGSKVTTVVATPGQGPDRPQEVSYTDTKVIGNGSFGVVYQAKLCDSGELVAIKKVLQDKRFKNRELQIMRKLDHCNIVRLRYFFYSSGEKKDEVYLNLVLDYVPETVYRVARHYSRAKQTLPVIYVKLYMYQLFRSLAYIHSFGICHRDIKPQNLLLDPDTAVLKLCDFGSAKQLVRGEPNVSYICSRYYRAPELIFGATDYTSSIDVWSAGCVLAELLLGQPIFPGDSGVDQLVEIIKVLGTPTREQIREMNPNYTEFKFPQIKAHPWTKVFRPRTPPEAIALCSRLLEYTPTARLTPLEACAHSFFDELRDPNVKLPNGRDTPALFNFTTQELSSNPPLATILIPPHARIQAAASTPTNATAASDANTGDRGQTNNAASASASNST
T3 sequence (P12931 whole entry): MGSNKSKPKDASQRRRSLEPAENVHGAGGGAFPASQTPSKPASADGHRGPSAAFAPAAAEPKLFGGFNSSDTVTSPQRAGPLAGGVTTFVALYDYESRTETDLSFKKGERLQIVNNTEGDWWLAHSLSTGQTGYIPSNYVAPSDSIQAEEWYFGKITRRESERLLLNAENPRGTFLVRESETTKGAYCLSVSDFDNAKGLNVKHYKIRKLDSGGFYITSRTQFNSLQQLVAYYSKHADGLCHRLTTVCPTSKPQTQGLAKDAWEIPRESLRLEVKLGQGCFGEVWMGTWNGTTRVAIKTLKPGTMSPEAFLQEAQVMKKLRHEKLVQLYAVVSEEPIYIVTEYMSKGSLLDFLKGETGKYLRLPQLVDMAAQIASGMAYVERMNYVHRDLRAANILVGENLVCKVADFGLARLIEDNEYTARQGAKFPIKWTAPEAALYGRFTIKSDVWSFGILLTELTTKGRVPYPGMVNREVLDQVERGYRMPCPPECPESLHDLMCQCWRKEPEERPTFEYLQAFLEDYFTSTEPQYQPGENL
Chain of activated ERK2 (P28482 whole entry): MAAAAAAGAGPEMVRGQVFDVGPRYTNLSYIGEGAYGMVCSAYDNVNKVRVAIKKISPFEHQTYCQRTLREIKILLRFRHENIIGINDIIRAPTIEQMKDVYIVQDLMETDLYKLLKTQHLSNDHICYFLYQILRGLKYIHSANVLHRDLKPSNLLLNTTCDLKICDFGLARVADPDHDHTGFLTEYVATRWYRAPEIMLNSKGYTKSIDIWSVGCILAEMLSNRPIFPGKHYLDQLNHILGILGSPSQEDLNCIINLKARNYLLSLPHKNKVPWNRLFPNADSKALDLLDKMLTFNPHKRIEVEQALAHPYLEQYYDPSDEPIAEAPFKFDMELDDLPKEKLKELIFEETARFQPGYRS

Row | Compound | melting point | Ki (Aurora-2) | Ki (activated ERK2) | Ki (GSK-3β (AA 1-420)) | Ki (human Src kinase)
1 | OC1(c2ccccc2)CCN(c2nc(Nc3cc(C4CC4)n[nH]3)c3ccccc3n2)CC1 [III-115, (5-Cyclopropyl-2H-pyrazol-3-yl)-[2-(4-hydroxy-4-phenylpiperidin-1-yl)-quinazolin-4-yl]-amine] | 131 °C | < 0.1 µM | < 1 µM | 0.1 to 1 µM | –
2 | CC1CCN(c2nc(Nc3cc(C4CC4)n[nH]3)c3ccccc3n2)CC1 [III-111, (5-Cyclopropyl-2H-pyrazol-3-yl)-[2-(4-methylpiperidin-1-yl)-quinazolin-4-yl]-amine] | – | < 0.1 µM | < 1 µM | < 0.1 µM | –
3 | c1ccc(-c2nc(Nc3ccn[nH]3)c3ccccc3n2)cc1 [III-63, (2-Phenyl-quinazolin-4-yl)-(2H-pyrazol-3-yl)-amine] | 247 to 249 °C | < 0.1 µM | 1 to 12 µM | < 0.1 µM | –
4 | Cc1cc(Nc2nc(N3CCCCC3)nc3ccccc23)[nH]n1 [III-108, (5-Methyl-2H-pyrazol-3-yl)-(2-piperidin-1-yl-quinazolin-4-yl)-amine] | 294 °C | < 0.1 µM | 1 to 12 µM | < 0.1 µM | –
5 | c1ccc2c(Nc3cc(C4CC4)n[nH]3)nc(N3CCCCCC3)nc2c1 [III-117] | 199 to 200 °C | < 0.1 µM | < 1 µM | < 0.1 µM | –
6 | c1ccc(-c2nc(Nc3cc(C4CC4)n[nH]3)c3ccccc3n2)cc1 [III-40, (5-Cyclopropyl-2H-pyrazol-3-yl)-(2-phenyl-quinazolin-4-yl)-amine] | 218 to 219 °C | < 0.1 µM | 1 to 12 µM | < 0.1 µM | < 0.1 µM
7 | c1ccc2c(c1)CCN(c1nc(Nc3cc(C4CC4)n[nH]3)c3ccccc3n1)C2 [III-118, (5-Cyclopropyl-2H-pyrazol-3-yl)-[2-(3,4-dihydro-1H-isoquinolin-2-yl)-quinazolin-4-yl]-amine] | 182 to 184 °C | < 0.1 µM | < 1 µM | < 0.1 µM | –
8 | OCC1CCN(c2nc(Nc3cc(C4CC4)n[nH]3)c3ccccc3n2)CC1 [III-120, (5-Cyclopropyl-2H-pyrazol-3-yl)-[2-(4-hydroxymethylpiperidin-1-yl)-quinazolin-4-yl]-amine] | 142 °C | < 0.1 µM | < 1 µM | < 0.1 µM | –
9 | COc1cccc(-c2nc(Nc3cc(C)n[nH]3)c3ccccc3n2)c1 [III-45, [2-(3-Methoxyphenyl)-quinazolin-4-yl]-(5-methyl-2H-pyrazol-3-yl)-amine] | 226 °C | < 0.1 µM | – | < 0.1 µM | < 0.1 µM
10 | Cc1cc(Nc2nc(N3CCCCCC3)nc3ccccc23)[nH]n1 [III-109] | 269 °C | < 0.1 µM | < 1 µM | < 0.1 µM | –
11 | Cc1cc(Nc2nc(-c3ccc(Cl)c(Cl)c3)nc3ccccc23)[nH]n1 [III-33, [2-(3,4-Dichlorophenyl)-quinazolin-4-yl]-(5-methyl-2H-pyrazol-3-yl)-amine] | 274 °C | < 0.1 µM | – | < 0.1 µM | < 0.1 µM
